Where a name gives a salt, the structure may show the parent alone.
Assay: Solubility of dantrolene sodium salt with cyclodextrins at pH 6.0 to 10.0 (FIGS. 1-5, 11, 12)
Assay type: physicochemical
Conditions: pH 9; 2-hydroxypropyl-β-cyclodextrin 50 mg/ml, dantrolene sodium salt 1 mg/ml
Experimental: In these experiments four different cyclodextrins were tested in combination with dantrolene sodium salt. The concentration of the cyclodextrin compound was 50 mg/ml and the concentration of dantrolene sodium salt was 1 mg/ml. The pH values were adjusted by using a buffer composed of phosphate 25 mM and Tromethamine 25 mM in water to reach pH 6.0, 7.0, 8.0, 9.0 and 10.0, respectively. The obtained solutions were stored at room temperature and examined over the course of 10 days. The solubility of dantrolene sodium salt was determined after 24 and 48 hours. The solutions were analyzed by visual observation, whilst the content of the dantrolene sodium salt and the degradation profile were determined by HPLC and pH value monitoring.
Dantrolene content and degradation profiles were determined on an Agilent Series 1100 HPLC equipment (Agilent Technologies Inc, Santa Clara, CA, USA) fitted with a quaternary pump, an autosampler, a diode-array detector and a thermostated column compartment. Samples were analyzed on a Kinetex XB-C18 column (75×4.6 mm, 2.6 μm, Phenomenex) with mobile phases consisting of water with 0.1% formic acid (A) and acetonitrile with 0.1% formic acid (B) using a linear gradient from 15% to 45% (B) in 12 minutes. […]

- solubility of the dantrolene salt: almost complete solubility
Structure (SMILES): O=C1CN(/N=C/c2ccc(-c3ccc([N+](=O)[O-])cc3)o2)C(O)=N1 [dantrolene salt, dantrolene sodium salt]

— patent publication US11844782B2, “Aqueous composition comprising dantrolene” (SPEPHARM AG, priority 2015, dated 2023)
